# From patent publication US20110207779A1, “PROCESS FOR THE PREPARATION OF ESOMEPRAZOLE MAGNESIUM” (GLENMARK GENERICS LTD, priority 2010, published 2011)
# Assay: R-isomer content of formulated esomeprazole magnesium dihydrate after incubation in a closed container (chiral HPLC)
# Assay type: physicochemical
# Details: formulated in above mentioned dosage forms (capsules, mini-tablets); incubated in a closed container; temperature and time not given
# Protocol: The content of R-isomer in esomeprazole magnesium dihydrate was measured by chiral high performance liquid chromatography equipped with quaternary gradient pumps, variable wavelength UV detector attached with data recorder and integrator software under the following conditions:
# Buffer preparation: mix 70 mL of 156.0 g/l solution of sodium dihydrogen phosphate R with 20 mL of a 179.1 g/l solution of disodium hydrogen phosphate R. Dilute with water to 1000 mL and then dilute 250 mL of this solution with water to 1000 ml. Mobile phase: Acetonitrile: buffer solution pH 6.0 (65:435, v/v).
structure (smiles),measurement,value
"COc1ccc2[n-]c([S@@+]([O-])Cc3ncc(C)c(OC)c3C)nc2c1.COc1ccc2[n-]c([S@@+]([O-])Cc3ncc(C)c(OC)c3C)nc2c1.O.O.[Mg+2] [Esomeprazole magnesium dihydrate, esomeprazole magnesium dihydrate]",R-isomer content after formulation and incubation (chiral stability),remains within the range of R-isomer content
